Results: PubChem BioAssay AID330 (DTP/NCI, 2004)
Several values for one entry are separate records, joined by “and”; a condition that tells them apart may be missing. Identical values can stand only once. Inconclusive results and toxic doses are left out. The calls were made as follows: active = survival T/C of 150% or more; inactive = T/C below 125% in these data.

Test system: P388 leukemia ip, CD2F1 mice, survival T/C
Test: NCI In Vivo Anticancer Drug Screen. Data for tumor model P388 Leukemia (intraperitoneal) in CD2F1 (CDF1) mice
Conditions: endpoint: median survival time, higher = longer survival
How it was run: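 Mice carrying the transplanted tumor received test compound or vehicle. Survival was recorded in each group, and the value is the treated-group measurement divided by that of the vehicle-treated control group.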

[1] = dose: 50.0 mg/kg/injection, schedule: Q01DX009 (ip), vehicle: Klucel (hydroxypropylcellulose) (HPC)
[2] = dose: 50.0 mg/kg/injection, schedule: Q01DX009 (ip), vehicle: saline
[3] = dose: 100.0 mg/kg/injection, schedule: Q01DX009 (ip), vehicle: Klucel (hydroxypropylcellulose) (HPC)
[4] = dose: 100.0 mg/kg/injection, schedule: Q01DX009 (ip), vehicle: saline
[5] = dose: 200.0 mg/kg/injection, schedule: Q01DX009 (ip), vehicle: Klucel (hydroxypropylcellulose) (HPC)
[6] = dose: 200.0 mg/kg/injection, schedule: Q01DX009 (ip), vehicle: saline
[7] = dose: 6.25 mg/kg/injection, schedule: Q01DX005 (ip), vehicle: saline with Tween-80
[8] = dose: 100.0 mg/kg/injection, schedule: Q01DX005 (ip), vehicle: saline with Tween-80
[9] = dose: 200.0 mg/kg/injection, schedule: Q01DX005 (ip), vehicle: saline with Tween-80
[10] = dose: 50.0 mg/kg/injection, schedule: Q01DX009 (ip), vehicle: saline with Tween-80
[11] = dose: 50.0 mg/kg/injection, schedule: Q01DX005 (ip), vehicle: saline with Tween-80
[12] = dose: 60.0 mg/kg/injection, schedule: Q01DX005 (ip), vehicle: saline with Tween-80
[13] = dose: 120.0 mg/kg/injection, schedule: Q01DX005 (ip), vehicle: saline with Tween-80
[14] = dose: 240.0 mg/kg/injection, schedule: Q01DX005 (ip), vehicle: saline with Tween-80
[15] = dose: 50.0 mg/kg/injection, schedule: Q01DX005 (ip), vehicle: saline
[16] = dose: 100.0 mg/kg/injection, schedule: Q01DX005 (ip), vehicle: saline
[17] = dose: 200.0 mg/kg/injection, schedule: Q01DX005 (ip), vehicle: saline
[18] = dose: 100.0 mg/kg/injection, schedule: Q01DX009 (ip), vehicle: saline with Tween-80
[19] = dose: 200.0 mg/kg/injection, schedule: Q01DX009 (ip), vehicle: saline with Tween-80
[20] = dose: 100.0 mg/kg/injection, schedule: Q04DX003 (ip), vehicle: saline
[21] = dose: 200.0 mg/kg/injection, schedule: Q04DX003 (ip), vehicle: saline

Measured: T/C

O=C1C=CC(=O)N1c1ccccc1[N+](=O)[O-]
inactive: dose: 6.0 mg/kg/injection, schedule: Q01DX009 (ip), vehicle: saline with Tween-80 91 % of control

CC1(C)NC(=O)N(Cc2ccccc2)C1=O
inactive: [1] 102 % of control | [2] 108 % of control | [3] 101 % of control | [4] 108 % of control | [5] 102 % of control | [6] 104 % of control

O=C1c2cccc3cc([N+](=O)[O-])cc(c23)C(=O)N1Cc1cccnc1
inactive: [7] 100 % of control | dose: 12.5 mg/kg/injection, schedule: Q01DX005 (ip), vehicle: saline with Tween-80 96 % of control | dose: 25.0 mg/kg/injection, schedule: Q01DX005 (ip), vehicle: saline with Tween-80 92 % of control | [8] 92 % of control | [9] 101 % of control

Nc1nc(-c2c[nH]c(=O)[nH]c2=O)cs1
inactive: dose: 12.5 mg/kg/injection, schedule: Q01DX009 (ip), vehicle: saline with Tween-80 107 % of control | dose: 25.0 mg/kg/injection, schedule: Q01DX009 (ip), vehicle: saline with Tween-80 107 % of control | [10] 104 % of control

O=S(=O)(NCCSSCCNS(=O)(=O)c1cccs1)c1cccs1
inactive: [1] 88 % of control | [3] 92 % of control | [5] 100 % of control

CC1=Nc2ccccc2SC2(C1)C(C1COC(C)(C)O1)OC1OC(C)(C)OC12 (stereo not drawn)
inactive: [11] 93 % of control | [8] 94 % of control | [9] 92 % of control

CCOC1CN(C(=O)OC)N1C(=O)OC (stereo not drawn)
inactive: [2] 100 % of control | [4] 107 % of control | [6] 105 % of control

O=C1C2=C(OCCO2)C(=O)C2=C1OCO2
inactive: [12] 109 % of control | [13] 107 % of control | [14] 88 % of control

O=C1C[C@@H]2OC3=C(C(=O)CCC3)[C@@H]2O1
inactive: dose: 60.0 mg/kg/injection, schedule: Q01DX005 (ip), vehicle: saline 102 % of control | dose: 120.0 mg/kg/injection, schedule: Q01DX005 (ip), vehicle: saline 121 % of control | dose: 240.0 mg/kg/injection, schedule: Q01DX005 (ip), vehicle: saline 119 % of control

COC(=O)C(N)COC(=O)c1ccccc1 (stereo not drawn)
inactive: [15] 101 % of control | [16] 100 % of control | [17] 100 % of control

CN1CCNc2c1cc(O)c1c2C(=O)c2ccccc2C1=O
inactive: dose: 100.0 mg/kg/injection, schedule: Q01DX001 (ip), vehicle: Klucel (hydroxypropylcellulose) (HPC) 101 % of control | dose: 200.0 mg/kg/injection, schedule: Q01DX001 (ip), vehicle: Klucel (hydroxypropylcellulose) (HPC) 94 % of control | dose: 400.0 mg/kg/injection, schedule: Q01DX001 (ip), vehicle: Klucel (hydroxypropylcellulose) (HPC) 98 % of control

CCN(CC)c1ccc(NC2=CC(=O)C(Nc3ccc(N(CC)CC)cc3)=CC2=O)cc1
inactive: [11] 91 % of control | [8] 89 % of control | [9] 89 % of control

Cc1ccc(N2CCN(CC(O)COc3cc4c(c5c3CCCC5)CCCC4)CC2)cc1C (stereo not drawn)
inactive: dose: 100.0 mg/kg/injection, schedule: Q04DX003 (ip), vehicle: Klucel (hydroxypropylcellulose) (HPC) 95 % of control | dose: 200.0 mg/kg/injection, schedule: Q04DX003 (ip), vehicle: Klucel (hydroxypropylcellulose) (HPC) 93 % of control | dose: 400.0 mg/kg/injection, schedule: Q04DX003 (ip), vehicle: Klucel (hydroxypropylcellulose) (HPC) 91 % of control

NCC(O)c1ccc(O)cc1 (stereo not drawn)
inactive: [2] 101 % of control and 111 % of control | [4] 106 % of control and 108 % of control | [6] 106 % of control and 90 % of control | dose: 400.0 mg/kg/injection, schedule: Q01DX009 (ip), vehicle: saline 89 % of control and 96 % of control | dose: 600.0 mg/kg/injection, schedule: Q01DX009 (ip), vehicle: saline 89 % of control and 90 % of control

CCCCB1OB(CCCC)OB(CCCC)O1
inactive: [10] 92 % of control | [18] 105 % of control | [19] 105 % of control

COCC1OC2OC3C(COC)OC(OC4C(COC)OC(OC5C(COC)OC(OC6C(COC)OC(OC7C(COC)OC(OC8C(COC)OC(OC1C(O)C2O)C(O)C8O)C(O)C7O)C(O)C6O)C(O)C5O)C(O)C4O)C(O)C3O (stereo not drawn) (tested in a mixture with another compound)
inactive: dose: 25.0 mg/kg/injection, schedule: Q01DX009 (ip), vehicle: Klucel (hydroxypropylcellulose) (HPC) 100 % of control and 102 % of control | [1] 99 % of control and 100 % of control | [3] 98 % of control | [5] 95 % of control and 97 % of control | dose: 400.0 mg/kg/injection, schedule: Q01DX009 (ip), vehicle: Klucel (hydroxypropylcellulose) (HPC) 93 % of control and 95 % of control

Cc1cc(C)c(C#N)c(SCC#CCSc2nc(C)cc(C)c2C#N)n1
inactive: dose: 1.5 mg/kg/injection, schedule: Q01DX005 (ip), vehicle: saline with Tween-80 103 % of control | dose: 3.0 mg/kg/injection, schedule: Q01DX005 (ip), vehicle: saline with Tween-80 103 % of control | dose: 6.0 mg/kg/injection, schedule: Q01DX005 (ip), vehicle: saline with Tween-80 94 % of control | [7] 89 % of control | [8] 91 % of control | [9] 91 % of control

O=C(OC(C(=O)O)c1ccccc1)c1ccc([N+](=O)[O-])cc1 (stereo not drawn)
inactive: dose: 75.0 mg/kg/injection, schedule: Q01DX001 (ip), vehicle: Klucel (hydroxypropylcellulose) (HPC) 89 % of control | dose: 150.0 mg/kg/injection, schedule: Q01DX001 (ip), vehicle: Klucel (hydroxypropylcellulose) (HPC) 103 % of control | dose: 300.0 mg/kg/injection, schedule: Q01DX001 (ip), vehicle: Klucel (hydroxypropylcellulose) (HPC) 95 % of control

NC(CCCCNC=O)C(=O)O (stereo not drawn)
inactive: [15] 104 % of control | [16] 98 % of control | [17] 96 % of control

CSN(C)C(=O)Nc1cc(Cl)ccc1Cl
inactive: [20] 107 % of control | [21] 92 % of control | dose: 400.0 mg/kg/injection, schedule: Q04DX003 (ip), vehicle: saline 92 % of control

CC(=O)N1C=[N+](C)C(C)(C)C1
inactive: [20] 103 % of control | [21] 90 % of control

CNC(=O)OCCC(OC(=O)NC)C1CCC2C3CCC4CCCCC4(C)C3CCC12C (stereo not drawn)
inactive: dose: 100.0 mg/kg/injection, schedule: Q04DX002 (ip), vehicle: Klucel (hydroxypropylcellulose) (HPC) 113 % of control | dose: 200.0 mg/kg/injection, schedule: Q04DX002 (ip), vehicle: Klucel (hydroxypropylcellulose) (HPC) 103 % of control | dose: 400.0 mg/kg/injection, schedule: Q04DX002 (ip), vehicle: Klucel (hydroxypropylcellulose) (HPC) 110 % of control

CC(=O)Nc1ccc(S(=O)(=O)n2c(=O)oc3ccc(Br)cc32)cc1
inactive: dose: 50.0 mg/kg/injection, schedule: Q01DX005 (ip), vehicle: Klucel (hydroxypropylcellulose) (HPC) 98 % of control | dose: 100.0 mg/kg/injection, schedule: Q01DX005 (ip), vehicle: Klucel (hydroxypropylcellulose) (HPC) 100 % of control | dose: 200.0 mg/kg/injection, schedule: Q01DX005 (ip), vehicle: Klucel (hydroxypropylcellulose) (HPC) 99 % of control

N#CC1OC(COC(=O)c2ccccc2)C(OC(=O)c2ccccc2)C1OC(=O)c1ccccc1 (stereo not drawn)
inactive: dose: 12.5 mg/kg/injection, schedule: Q01DX009 (ip), vehicle: distilled water + Tween-80 90 % of control | dose: 25.0 mg/kg/injection, schedule: Q01DX009 (ip), vehicle: distilled water + Tween-80 89 % of control | dose: 50.0 mg/kg/injection, schedule: Q01DX009 (ip), vehicle: distilled water + Tween-80 88 % of control | [10] 99 % of control | dose: 100.0 mg/kg/injection, schedule: Q01DX009 (ip), vehicle: distilled water + Tween-80 98 % of control | [18] 94 % of control | dose: 200.0 mg/kg/injection, schedule: Q01DX009 (ip), vehicle: distilled water + Tween-80 101 % of control | [19] 94 % of control

O=C(O)C(=O)O.O=C([O-])C(=O)O.O=C([O-])C(=O)O.O=C([O-])C(=O)[O-].[K+].[U]
inactive: dose: 1.56 mg/kg/injection, schedule: Q01DX009 (ip), vehicle: saline 100 % of control | dose: 3.13 mg/kg/injection, schedule: Q01DX009 (ip), vehicle: saline 100 % of control

C=CC(=NC(C)(C)C)Nc1ccc(C(=O)OCC)cc1
inactive: [10] 113 % of control | [18] 106 % of control

OCCN(CO)CCO
inactive: [12] 117 % of control | [13] 123 % of control | [14] 115 % of control
